Calls of active or inactive are those of the source.
Key:
[1] = T. cruzi growth inhibition in host cells, dose response, cell-based, plate reader, dry powder, set 2 (AID 652275); format: functional
[2] = HEK293T cell cytotoxicity, dose response, cytotoxicity control for HIV Vif inhibitor project, cherry-picks (AID 652208); format: functional, cell-based
[3] = molecular target: T1, Heat shock factor protein 1 (Mus musculus, UniProt P38532); experiment: HSF1 potentiators in luciferase reporter cells, confirmation, cell-based, NIH3T3, luminescence, dose retest (AID 435004); format: functional;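 note: stress induced by proteasome inhibitor MG132 added 30 min after compound; luciferase reporter driven by HSF1 response element in NIH3T3 cells; actives raise luminescence as potentiators of the MG132 stress response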
T1 sequence (P38532 whole entry): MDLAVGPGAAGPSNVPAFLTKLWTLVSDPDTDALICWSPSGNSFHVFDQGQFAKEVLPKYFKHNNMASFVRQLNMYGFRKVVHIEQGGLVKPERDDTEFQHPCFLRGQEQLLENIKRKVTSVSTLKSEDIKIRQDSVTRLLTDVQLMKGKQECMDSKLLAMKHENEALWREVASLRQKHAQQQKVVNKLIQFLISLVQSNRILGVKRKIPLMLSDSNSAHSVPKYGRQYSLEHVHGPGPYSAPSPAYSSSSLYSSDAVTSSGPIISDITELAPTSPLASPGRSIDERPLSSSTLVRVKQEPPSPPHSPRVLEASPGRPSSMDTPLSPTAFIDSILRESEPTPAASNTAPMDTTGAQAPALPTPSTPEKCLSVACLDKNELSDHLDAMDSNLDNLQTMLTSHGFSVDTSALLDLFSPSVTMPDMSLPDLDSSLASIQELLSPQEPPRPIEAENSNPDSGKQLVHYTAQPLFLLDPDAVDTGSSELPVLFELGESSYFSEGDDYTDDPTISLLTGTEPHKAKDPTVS

[4] = molecular target: T2, DNA repair and recombination protein RAD54-like (Homo sapiens, UniProt Q92698); experiment: inhibitors of human RAD54 branch migration, confirmation, biochemical, fluorescence, cherry-picked samples, dose series (AID 651657); format: functional
T2 sequence (Q92698 whole entry): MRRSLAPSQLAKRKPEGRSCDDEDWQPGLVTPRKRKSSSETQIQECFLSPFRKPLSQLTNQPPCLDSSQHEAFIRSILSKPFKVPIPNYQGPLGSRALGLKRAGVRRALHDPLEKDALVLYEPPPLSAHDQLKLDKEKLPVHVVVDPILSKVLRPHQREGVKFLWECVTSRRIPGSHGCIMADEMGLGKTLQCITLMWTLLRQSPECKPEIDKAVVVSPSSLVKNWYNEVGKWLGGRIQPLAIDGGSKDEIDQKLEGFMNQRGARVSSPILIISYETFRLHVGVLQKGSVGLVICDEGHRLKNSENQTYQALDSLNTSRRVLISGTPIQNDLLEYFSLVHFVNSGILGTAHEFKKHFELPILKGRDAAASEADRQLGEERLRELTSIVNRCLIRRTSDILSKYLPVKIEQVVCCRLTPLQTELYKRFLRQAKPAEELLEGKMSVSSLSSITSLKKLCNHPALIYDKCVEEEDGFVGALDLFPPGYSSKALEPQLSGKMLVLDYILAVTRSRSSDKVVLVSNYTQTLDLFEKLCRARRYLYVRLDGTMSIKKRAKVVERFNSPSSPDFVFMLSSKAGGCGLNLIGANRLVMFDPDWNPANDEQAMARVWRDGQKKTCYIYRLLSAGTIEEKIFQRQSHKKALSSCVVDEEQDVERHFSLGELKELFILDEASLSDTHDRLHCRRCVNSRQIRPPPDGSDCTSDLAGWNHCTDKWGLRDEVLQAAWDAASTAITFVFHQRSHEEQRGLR

Albumin = Albumin (Bos taurus, UniProt P02769); experiment: Counterscreen for inhibitors of T-cell receptor (TCR)-CD3 interaction: Fluorescence-based biochemical high throughput dose response assay to identify inhibitors of T-cell receptor (TCR)-CD3 interaction using a TAMRA-labeled BSA probe.; format: functional
[5] = molecular target: T3, Histone-lysine N-methyltransferase NSD2 (Homo sapiens, UniProt O96028); format: biochemical
T3 sequence (O96028 whole entry): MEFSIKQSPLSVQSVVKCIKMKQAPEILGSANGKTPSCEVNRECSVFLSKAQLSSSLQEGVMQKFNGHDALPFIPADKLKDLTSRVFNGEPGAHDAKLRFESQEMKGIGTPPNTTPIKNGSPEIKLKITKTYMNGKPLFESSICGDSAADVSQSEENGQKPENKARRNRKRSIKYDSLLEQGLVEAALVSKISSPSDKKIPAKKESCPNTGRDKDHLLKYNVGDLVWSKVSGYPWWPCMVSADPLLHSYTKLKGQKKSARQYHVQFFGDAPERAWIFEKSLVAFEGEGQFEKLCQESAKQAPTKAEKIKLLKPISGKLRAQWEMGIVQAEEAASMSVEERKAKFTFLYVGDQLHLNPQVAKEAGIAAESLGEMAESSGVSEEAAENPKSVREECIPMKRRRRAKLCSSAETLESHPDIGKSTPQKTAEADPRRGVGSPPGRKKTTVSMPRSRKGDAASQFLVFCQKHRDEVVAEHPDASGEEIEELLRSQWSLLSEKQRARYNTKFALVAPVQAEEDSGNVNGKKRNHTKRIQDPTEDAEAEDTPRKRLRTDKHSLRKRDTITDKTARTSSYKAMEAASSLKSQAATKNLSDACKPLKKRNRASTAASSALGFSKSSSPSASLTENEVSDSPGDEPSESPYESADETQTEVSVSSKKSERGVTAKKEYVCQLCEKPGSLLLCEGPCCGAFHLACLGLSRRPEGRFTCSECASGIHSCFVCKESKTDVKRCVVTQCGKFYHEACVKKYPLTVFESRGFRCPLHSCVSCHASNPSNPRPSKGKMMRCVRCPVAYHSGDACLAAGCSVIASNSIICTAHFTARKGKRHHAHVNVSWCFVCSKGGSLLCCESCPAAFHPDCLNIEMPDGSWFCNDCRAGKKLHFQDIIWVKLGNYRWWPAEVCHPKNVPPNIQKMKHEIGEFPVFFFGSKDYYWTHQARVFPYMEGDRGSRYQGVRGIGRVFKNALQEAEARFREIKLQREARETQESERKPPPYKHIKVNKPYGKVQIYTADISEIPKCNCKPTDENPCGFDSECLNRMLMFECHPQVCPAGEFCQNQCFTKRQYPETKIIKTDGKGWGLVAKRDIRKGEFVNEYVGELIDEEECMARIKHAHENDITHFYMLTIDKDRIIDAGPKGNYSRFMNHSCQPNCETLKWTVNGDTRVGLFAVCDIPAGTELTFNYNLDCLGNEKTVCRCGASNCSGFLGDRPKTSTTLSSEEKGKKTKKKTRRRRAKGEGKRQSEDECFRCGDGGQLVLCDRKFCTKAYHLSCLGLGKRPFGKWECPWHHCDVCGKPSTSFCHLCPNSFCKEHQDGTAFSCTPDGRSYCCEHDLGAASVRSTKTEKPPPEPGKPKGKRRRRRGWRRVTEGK

[6] = molecular target: T4, Rac GTPase-activating protein 1 (Homo sapiens, UniProt Q9H0H5); experiment: MgcRacGAP GTPase-activating activity inhibitors, confirmation, biochemical, ADP Hunter fluorescence, primary and confirmatory (AID 624330); format: functional
T4 sequence (Q9H0H5 whole entry): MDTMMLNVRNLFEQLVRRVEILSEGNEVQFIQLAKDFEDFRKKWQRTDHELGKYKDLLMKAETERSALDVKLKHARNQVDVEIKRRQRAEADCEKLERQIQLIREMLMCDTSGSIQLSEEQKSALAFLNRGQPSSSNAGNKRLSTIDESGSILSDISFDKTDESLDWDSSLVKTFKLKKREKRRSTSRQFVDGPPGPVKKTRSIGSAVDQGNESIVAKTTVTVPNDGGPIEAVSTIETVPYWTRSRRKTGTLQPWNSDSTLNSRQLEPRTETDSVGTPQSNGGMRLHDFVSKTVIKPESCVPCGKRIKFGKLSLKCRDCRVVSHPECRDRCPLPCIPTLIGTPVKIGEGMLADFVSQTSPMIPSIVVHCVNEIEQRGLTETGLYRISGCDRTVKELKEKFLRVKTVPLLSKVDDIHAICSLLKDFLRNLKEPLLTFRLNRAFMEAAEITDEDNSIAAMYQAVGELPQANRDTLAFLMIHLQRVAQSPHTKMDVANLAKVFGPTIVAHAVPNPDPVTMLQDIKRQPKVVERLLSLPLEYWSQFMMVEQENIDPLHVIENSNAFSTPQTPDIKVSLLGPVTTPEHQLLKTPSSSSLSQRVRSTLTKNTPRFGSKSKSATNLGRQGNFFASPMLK

[7] = molecular target: T5, Corticotropin-releasing factor receptor 2/Corticotropin-releasing factor-binding protein (Homo sapiens, UniProt P24387+Q13324); experiment: Dose Response confirmation of uHTS hits for small molecule antagonists of the CRF-binding protein and CRF-R2 receptor complex.; format: functional; details: read-out: IC50_Mean
T5 sequence (Q13324 whole entry): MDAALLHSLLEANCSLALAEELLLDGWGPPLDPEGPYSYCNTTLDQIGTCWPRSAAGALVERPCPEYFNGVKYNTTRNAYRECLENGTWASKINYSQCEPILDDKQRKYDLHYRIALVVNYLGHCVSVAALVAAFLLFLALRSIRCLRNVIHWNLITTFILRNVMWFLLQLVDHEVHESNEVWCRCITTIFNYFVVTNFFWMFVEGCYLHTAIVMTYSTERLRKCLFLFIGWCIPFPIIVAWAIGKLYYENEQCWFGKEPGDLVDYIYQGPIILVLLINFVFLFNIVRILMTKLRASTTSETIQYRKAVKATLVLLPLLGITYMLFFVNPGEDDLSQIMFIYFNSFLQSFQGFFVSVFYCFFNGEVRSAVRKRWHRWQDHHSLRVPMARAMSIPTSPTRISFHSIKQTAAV
T5 sequence (P24387 whole entry): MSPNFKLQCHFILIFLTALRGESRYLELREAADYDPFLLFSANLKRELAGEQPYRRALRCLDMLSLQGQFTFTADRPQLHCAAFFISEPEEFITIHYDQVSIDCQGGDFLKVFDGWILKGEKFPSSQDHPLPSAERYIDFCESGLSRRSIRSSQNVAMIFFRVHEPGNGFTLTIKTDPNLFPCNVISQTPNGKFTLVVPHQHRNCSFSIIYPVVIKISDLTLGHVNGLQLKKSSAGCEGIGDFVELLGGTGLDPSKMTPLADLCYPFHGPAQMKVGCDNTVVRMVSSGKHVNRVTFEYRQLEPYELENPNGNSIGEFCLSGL

[8] = molecular target: T5, Corticotropin-releasing factor receptor 2/Corticotropin-releasing factor-binding protein; experiment: activators of CRF receptor 2 with binding protein – uHTS hits, confirmation (AID 602473); format: functional; details: read-out: EC50_Mean
[9] = molecular target: T6, Short transient receptor potential channel 4 (Mus musculus, UniProt Q9QUQ5); experiment: mouse TRPC4 channel inhibitors, dose response, cell-based, HEK293 TRPC4/mu-opioid, Fluo-4 calcium (AID 434942); format: functional;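 note: potency of inhibitors blocking the TRPC4 calcium response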
T6 sequence (Q9QUQ5 whole entry): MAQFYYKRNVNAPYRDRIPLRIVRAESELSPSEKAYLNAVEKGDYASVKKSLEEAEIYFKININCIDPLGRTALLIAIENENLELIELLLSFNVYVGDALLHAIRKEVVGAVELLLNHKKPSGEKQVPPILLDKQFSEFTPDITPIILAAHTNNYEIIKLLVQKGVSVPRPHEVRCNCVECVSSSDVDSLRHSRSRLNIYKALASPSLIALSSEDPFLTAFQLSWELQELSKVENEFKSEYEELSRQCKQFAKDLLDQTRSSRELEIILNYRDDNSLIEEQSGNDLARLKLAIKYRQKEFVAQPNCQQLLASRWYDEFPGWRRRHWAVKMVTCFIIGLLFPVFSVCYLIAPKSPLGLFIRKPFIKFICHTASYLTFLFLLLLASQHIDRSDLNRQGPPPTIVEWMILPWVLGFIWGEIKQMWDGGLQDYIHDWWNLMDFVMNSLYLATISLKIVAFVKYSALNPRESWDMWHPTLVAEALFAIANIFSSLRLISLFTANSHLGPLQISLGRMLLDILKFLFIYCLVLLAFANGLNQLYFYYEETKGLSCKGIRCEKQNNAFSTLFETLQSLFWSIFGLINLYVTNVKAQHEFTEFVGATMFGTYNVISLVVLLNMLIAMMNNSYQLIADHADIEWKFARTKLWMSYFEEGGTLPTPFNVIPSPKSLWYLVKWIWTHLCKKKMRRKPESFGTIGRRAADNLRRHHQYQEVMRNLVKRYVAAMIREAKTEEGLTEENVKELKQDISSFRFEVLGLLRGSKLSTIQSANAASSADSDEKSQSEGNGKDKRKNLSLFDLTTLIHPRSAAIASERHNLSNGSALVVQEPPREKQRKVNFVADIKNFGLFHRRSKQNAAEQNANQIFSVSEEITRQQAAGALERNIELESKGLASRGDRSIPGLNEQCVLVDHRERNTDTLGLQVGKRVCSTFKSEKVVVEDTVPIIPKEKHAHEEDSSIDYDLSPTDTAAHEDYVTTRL

Chain of Albumin (P02769 whole entry): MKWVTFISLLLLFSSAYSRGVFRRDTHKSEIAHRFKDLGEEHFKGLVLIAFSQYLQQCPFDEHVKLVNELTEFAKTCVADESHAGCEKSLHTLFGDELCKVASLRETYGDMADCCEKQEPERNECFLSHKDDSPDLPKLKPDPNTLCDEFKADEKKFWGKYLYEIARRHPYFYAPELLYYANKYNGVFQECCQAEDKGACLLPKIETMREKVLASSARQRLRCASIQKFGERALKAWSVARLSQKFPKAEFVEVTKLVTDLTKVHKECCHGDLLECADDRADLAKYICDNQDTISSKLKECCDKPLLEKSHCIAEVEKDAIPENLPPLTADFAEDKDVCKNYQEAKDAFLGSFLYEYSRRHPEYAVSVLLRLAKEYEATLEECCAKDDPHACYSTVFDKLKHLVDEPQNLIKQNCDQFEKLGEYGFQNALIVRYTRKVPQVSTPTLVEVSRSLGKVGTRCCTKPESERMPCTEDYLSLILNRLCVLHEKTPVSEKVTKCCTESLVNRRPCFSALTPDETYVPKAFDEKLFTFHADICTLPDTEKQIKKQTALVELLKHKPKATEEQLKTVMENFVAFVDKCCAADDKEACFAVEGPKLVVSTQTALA

For `COC[C@H](C)N1C[C@H](C)[C@@H](CN(C)Cc2ccc(Cl)cc2)Oc2c(NC(=O)c3ccncc3)cccc2C1=O`, the AC50 [1] was 0.00139 µM (active).

With `O=C(COc1ccc(-n2cnnn2)cc1)Nc1cc(Cl)cc(Cl)c1` the AC50 [2] was 18.1 µM (active).

With `CC(Cc1ccccc1)NCC(=O)Nc1cc(N(C)C)nc2ccccc12` (centres undefined) the EC50 [3] was > 260 µM (inactive) and the AC50 [4] was 42.1 µM (active).

For `CN(C)C=O.O=C(O)c1ccccc1NS(=O)(=O)c1ccc(N/N=C/c2ccc(O)c(O)c2)c([N+](=O)[O-])c1`, the IC50 (Albumin) was > 94.1 µM (inactive), the AC50 [5] was 1.71 µM (active) and the IC50 [6] was 60.7 µM (active).

For `COCC(=O)N1CCCCN2[C@@H](CO)[C@H](c3ccc(-c4cccc(C)c4)cc3)[C@@H]2C1`, the AC50 [1] was 1.42 µM (active).

In the case of `Cc1ccc(-c2cc(C(=O)NCc3ccccn3)c3ccccc3n2)cc1C`, the IC50 [7] is reported as > 47.1 µM (inactive), the AC50 [2] is reported as 32.7 µM (active) and the EC50 [8] is reported as > 53 µM (inactive).

With `Cc1ccc2nc(C)cc(Nc3ccc4c(c3)OCCO4)c2c1` the EC50 [9] was 2.99 µM (active) and the AC50 [4] was 37.2 µM (active).

With `O=C(c1ccncc1)N1CCCCN2[C@@H](CO)[C@H](c3ccc(-c4ccccc4)cc3)[C@@H]2C1` the AC50 [1] was 4.5 µM (active).

From ChEMBL document CHEMBL1201862, “PubChem BioAssay data set” (2004)
